Experimental data taken from patent US9956171B2, “Liquid inhalation formulation comprising RPL554” (VERONA PHARMA PLC, priority 2014, dated 2018).

Experiment: Particle size distribution of micronized RPL554 by laser diffraction (Malvern Spraytec)
Assay type: physicochemical
Description: The technique used to measure the Dv50 value is typically laser diffraction. For instance, the RPL554 particles typically have a particle size distribution with a Dv50 value of from about 0.2 μm to about 5 μm as measured by laser diffraction. The particle size distribution analysis can be performed by laser diffraction using the Malvern Spraytec in conjunction with a wet dispersion cell. Typically, the instrument parameters for the Malvern Spraytec are as follows: • particle—standard opaque particle; • refractive index Particle—1.50; • refractive index (imaginary)—0.50; • density of particle—1.00; • refractive index of dispersant—1.33; • controller unit—1000 RPM; • measurement type—timed; • initial sampling time—30 s; • obscuration—20%-30%; • dispersant—1% Polysorbate 20 in deionised water.
The particle size distribution of a sample of micronized RPL554 suitable for use in nebulized formulations was evaluated using laser diffraction. The particle size distribution analysis was performed by laser diffraction using the Malvern Spraytec in conjunction with a wet dispersion cell.

**Q.** For `COc1cc2c(cc1OC)-c1c/c(=N\c3c(C)cc(C)cc3C)n(CCNC(N)=O)c(=O)n1CC2` [RPL554, 9,10-Dimethoxy-2-(2,4,6-trimethylphenylimino)-3-(N-carbamoyl-2-aminoethyl)-3,4,6,7-tetrahydro-2H-pyrimido[6,1-a]isoquinolin-4-one], which Dv10 is on record?
**A.** 0.69 μm

**Q.** And the Dv50?
**A.** 1.35 μm

**Q.** What about the Dv90 of the same compound?
**A.** 2.5 μm
